The results in this text go back to patent US20240376091A1, “THIADIAZOLEAMIDE DERIVATIVES AND THEIR APPLICATIONS” (ZHEJIANG UNIVERSITY, priority 2021, published 2024).

One series has as its target T1, AR (Homo sapiens, UniProt P10275, T878A).
T1 construct: into the androgen-dependent PCa cells (LNCaP); endogenous in cells; host or cells: LNCaP-ARR2PB-eGFP
T1 sequence (P10275 1-920 T878A): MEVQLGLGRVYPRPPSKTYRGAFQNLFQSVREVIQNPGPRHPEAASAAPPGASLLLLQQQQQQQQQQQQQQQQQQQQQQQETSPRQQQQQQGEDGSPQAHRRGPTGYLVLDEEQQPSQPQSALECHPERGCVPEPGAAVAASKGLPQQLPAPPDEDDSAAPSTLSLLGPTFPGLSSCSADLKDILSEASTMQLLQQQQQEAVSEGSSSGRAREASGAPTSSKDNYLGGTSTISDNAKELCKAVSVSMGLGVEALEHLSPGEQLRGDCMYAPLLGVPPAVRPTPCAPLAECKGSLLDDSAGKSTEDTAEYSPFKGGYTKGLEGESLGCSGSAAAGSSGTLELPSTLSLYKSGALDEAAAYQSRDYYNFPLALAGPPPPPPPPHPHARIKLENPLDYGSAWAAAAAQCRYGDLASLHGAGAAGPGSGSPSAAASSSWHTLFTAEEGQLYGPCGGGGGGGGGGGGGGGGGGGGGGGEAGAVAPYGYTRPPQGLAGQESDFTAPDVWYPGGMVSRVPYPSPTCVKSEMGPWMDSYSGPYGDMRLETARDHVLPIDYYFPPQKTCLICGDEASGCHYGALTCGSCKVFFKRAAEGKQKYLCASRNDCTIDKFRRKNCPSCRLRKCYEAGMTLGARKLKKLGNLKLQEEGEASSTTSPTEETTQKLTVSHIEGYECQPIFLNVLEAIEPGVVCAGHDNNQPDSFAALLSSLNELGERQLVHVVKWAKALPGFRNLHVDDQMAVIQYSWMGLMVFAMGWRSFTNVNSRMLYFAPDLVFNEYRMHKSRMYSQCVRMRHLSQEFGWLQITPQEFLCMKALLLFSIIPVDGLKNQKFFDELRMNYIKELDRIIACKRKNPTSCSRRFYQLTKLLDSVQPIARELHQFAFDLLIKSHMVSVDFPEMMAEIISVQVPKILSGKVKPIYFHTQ
Kind of series: AR transcriptional activity, LNCaP-ARR2PB-eGFP reporter cells. It counts as cell-based. The settings on record: LNCaP-ARR2PB-eGFP cells, 5 nM DHT, 72 hours; read-out: IC50 AR transcriptional activities. An excerpt: Detection principles: We conducted a stable transfection of promoter ARR2PB known for its strong AR responsiveness, into the androgen-dependent PCa cells (LNCaP). The expression of enhanced green fluorescent protein (eGFP) is depending on the degree of activation of AR. Therefore, LNCaP-ARR2PB-eGFP cell line could quantitatively determine the AR antagonistic activities of the compounds by evaluating the expression of eGFP.

In another series the target is T2, AR-LBD dimer (Homo sapiens, UniProt P10275).
T2 sequence (P10275 669-900 limits assumed): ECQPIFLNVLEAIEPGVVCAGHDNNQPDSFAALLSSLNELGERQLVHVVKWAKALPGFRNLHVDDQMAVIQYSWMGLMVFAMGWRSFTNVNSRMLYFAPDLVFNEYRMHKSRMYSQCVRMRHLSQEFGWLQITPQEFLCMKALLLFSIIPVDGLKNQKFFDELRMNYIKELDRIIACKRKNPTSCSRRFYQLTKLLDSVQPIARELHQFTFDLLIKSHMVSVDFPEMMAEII
Put plainly: Small-angle X-ray scattering (SAXS) of AR-LBD dimerization. The settings on record: AR-LBD 35 μM, DHT 10 μM, Enzalutamide 105 μM, A-1 105 μM. An excerpt: Detection principles: SAXS is a vital technique for detecting conformational changes of biomacromolecule by quantitatively evalucate the overall dimension and shape silhouette of biomacromolecule.
The SAXS scattering signal were collected for 20 frames (1 second exposure time) using the BL19U2 beamline. The ATSAS software were applied to analysis the results.

Another series relates to LNCaP xenograft. Put plainly: LNCaP xenograft model in vivo. The settings on record: intratumor injection 2.5 mg/kg/week.

Procedure for LNCaP xenograft: Methods: LNCaP cells were injected to the Male CB17 SCID mice (6-8 weeks old). Once tumor size reached target value, the mice were randomized into three groups with 6-8 mice per group. […] The mice weight and tumor volume were periodically recorded. Finally, the tumors were harvested.

Turning to `CC(=O)Cc1nsc(NC(=O)c2cc(-c3cccc(C(F)(F)F)c3)oc2C)n1` [Compound A-1, 2-Methyl-N-(3-(2-oxopropyl)-1,2,4-thiadiazol-5-yl)-5-(3-(trifluoromethyl)phenyl)furan-3-carboxamide], the IC50 at AR turned out to be 30 nM. The AR-LBD dimerization entry at AR-LBD dimer is “inhibits AR-LBD dimerization”. In addition, in the series on LNCaP xenograft, the body weight entry is recorded as “no significant loss of body weight”; the “tumor growth inhibition, tumor volume” value is recorded as “much superior to that for Enzalutamide”; the “tumor growth inhibition, tumor weight” value is listed as “much superior to that for Enzalutamide”.
